In ChEMBL document CHEMBL5380876, “Non-fused imidazole-biphenyl analogs repress triple-negative breast cancer growth by mainly stabilizing the c-MYC G-quadruplex via a multi-site binding mode” (Bioorg Med Chem, 2023):
Calls of active or inactive are those of the source. The calls are words filed in the database; no cut-off is given here.

Assays:
KYSE-30 = experiment: Cytotoxicity against human KYSE-30 cells assessed as reduction in cell viability by CCK8 assay; assay type: functional, cell-based
HCC1806 = experiment: Cytotoxicity against human HCC1806 cells assessed as reduction in cell viability by CCK8 assay; assay type: functional, cell-based
A549 = experiment: Cytotoxicity against human A549 cells assessed as reduction in cell viability by CCK8 assay; assay type: functional, cell-based
HeLa = experiment: Cytotoxicity against human HeLa cells assessed as reduction in cell viability by CCK8 assay; assay type: functional, cell-based
Quadruplex DNA [1] = experiment: Stabilization of c-Myc G4 quadruplex DNA (unknown origin) assessed as temperature at which 50% protein unfold by circular dichroism melting assay; assay type: nucleic-acid assay
MDA-MB-231 [2] = experiment: Cytotoxicity against human MDA-MB-231 cells assessed as reduction in cell viability by CCK8 assay; assay type: functional, cell-based
[3] = Cytotoxicity against human MCF-10A cells assessed as reduction in cell viability by CCK8 assay; assay type: toxicity, cell-based
[4] = Toxicity in BALB/c mouse xenografted with human MDA-MB-231 cells assessed as effect on body weight at 2 mg/kg, ip administered every other day for 20 days and measured every 4 days; assay type: organism-based; settings: in vivo, 480 h, time 20 day
MDA-MB-231 [5] = experiment: Antitumor activity against human MDA-MB-231 cells xenografted in BALB/c nude mouse assessed as reduction in tumor weight at 2 mg/kg, ip administered every other day for 20 days and measured every 4 days; assay type: functional, organism-based; settings: time 20.0 day
Quadruplex DNA [6] = experiment: Stabilization of c-Myc G4 quadruplex DNA (unknown origin) assessed as temperature at 50% protein unfold by circular dichroism melting assay; assay type: nucleic-acid assay

Compound | IC50 (KYSE-30) [µM] | IC50 (HCC1806) [µM] | IC50 (A549) [µM] | IC50 (HeLa) [µM] | T (Quadruplex DNA [1]) [°C] | IC50 (MDA-MB-231 [2]) [µM] | IC50 [3] [µM] | Activity [4] | Activity (MDA-MB-231 [5]) | T (Quadruplex DNA [6]) [°C]
COc1ccccc1-c1ccc(-c2nc(-c3ccc(N4CCN(C)CC4)cc3)c(-c3ccc(N4CCN(C)CC4)cc3)[nH]2)cc1 | 8.64 | > 20 | 7.51 | > 20 | 23.5 | 8.19 | > 20 | – | – | –
COc1ccc(-c2ccc(-c3nc(-c4ccc(N5CCN(C)CC5)cc4)c(-c4ccc(N5CCN(C)CC5)cc4)[nH]3)cc2)cc1 | 2.5 | 3.74 | 2.42 | 5.49 | 36.2 | 2.69 | 9.69 | – | – | –
CN1CCN(c2ccc(-c3nc(-c4ccc(-c5ccccn5)cc4)[nH]c3-c3ccc(N4CCN(C)CC4)cc3)cc2)CC1 | 2.79 | 7.09 | 1.94 | 12.3 | 34.4 | 2.19 | 7.75 | – | – | –
CN1CCN(c2ccc(-c3nc(-c4ccc(-c5ccccc5)cc4)[nH]c3-c3ccc(N4CCN(C)CC4)cc3)cc2)CC1 | 3.86 | 5.68 | 2.51 | 8.92 | 36.8 | 3.69 | 9.23 | – | – | –
CN1CCN(c2ccc(-c3nc(-c4ccc(-c5ccccc5C(F)(F)F)cc4)[nH]c3-c3ccc(N4CCN(C)CC4)cc3)cc2)CC1 | 2.21 | 1.9 | 1.7 | 3.55 | 29.6 | 2.43 | > 20 | – | – | –
COc1cccc2c1C(=O)c1c(O)c3c(c(O)c1C2=O)C[C@@](O)(C(=O)CO)C[C@@H]3O[C@H]1C[C@H](N)[C@H](O)[C@H](C)O1 [DOXORUBICIN] | – | – | – | – | – | – | – | Toxic | Active | –
CN1CCN(c2ccc(-c3nc(-c4ccc(C(F)(F)F)cc4)[nH]c3-c3ccc(N4CCN(C)CC4)cc3)cc2)CC1 | – | – | – | – | – | – | – | – | – | 28.4
